Measurements taken from patent publication US8329712B2, “Heterocyclic antiviral compounds” (Roche Palo Alto LLC, priority 2010, dated 2012).

Key:
[1] = biological target: T1, HCV polymerase (NS5B570n-Con1) (Hepatitis C virus genotype 1b, UniProt Q9WMX2); test: HCV NS5B RNA polymerase activity assay (incorporation of radiolabeled UTP); assay type: biochemical, HCV Con1 strain
T1 construct: contains a 21 amino acid deletion at the C-terminus relative to the full-length HCV polymerase; 6-histidine (N); made in house; host or cells: E. coli strain BL21(DE) pLysS, plasmid pET 17b
Procedure: The enzymatic activity of HCV polymerase (NS5B570n-Con1) was measured as the incorporation of radiolabeled nucleotide monophosphates into acid insoluble RNA products. Unincorporated radiolabeled substrate was removed by filtration and scintillant was added to the washed and dried filter plate containing radiolabeled RNA product. The amount of RNA product generated by NS5B570-Con1 at the end of the reaction was directly proportional to the amount of light emitted by the scintillant.
The N-terminal 6-histidine tagged HCV polymerase, derived from HCV Con1 strain, genotype 1b (NS5B570n-Con1) contains a 21 amino acid deletion at the C-terminus relative to the full-length HCV polymerase and was purified from E. coli strain BL21(DE) pLysS. The construct, containing the coding sequence of HCV NS5B Con1 (GenBank accession number AJ242654) was inserted into the plasmid construct pET 17b, downstream of a T7 promoter expression cassette and transformed into E. coli. A single colony was grown overnight as a starter culture and later used inoculate 10 L of LB media supplemented with 100 μg/mL ampicillin at 37° C. Protein expression was induced by the addition of 0.25 mM isopropyl-β-D-thiogalactopyranoside (IPTG) when optical density at […] of the culture was between 0.6 and 0.8 and cells were harvested after 16 to 18 h at 30° C. NS5B570n-Con1 was purified to homogeneity using a three-step protocol including subsequent column chromatography on Ni-NTA, SP-Sepharose HP and Superdex 75 resins.
Each 50 μL enzymatic reaction contained 20 nM RNA template derived from the complementary sequence of the Internal Ribosome Entry Site (cIRES), 20 nM NS5B570n-Con1 enzyme, 0.5 μCi of tritiated UTP (Perkin Elmer catalog no. TRK-412; specific activity: 30 to 60 Ci/mmol; stock solution concentration from 7.5×10^−5 M to 20.6×10^−6 M), 1 μM each ATP, CTP, and GTP, 40 mM Tris-HCl pH 8.0, 40 mM NaCl, 4 mM DTT (dithiothreitol), 4 mM MgC12, and 5 μL of compound serial diluted in DMSO. Reaction mixtures were assembled in 96-well filter plates (cat #MADVNOB, Millipore Co.) and incubated for 2 h at 30° C. Reactions were stopped by addition of 10% final (v/v) trichloroacetic acid and incubated for 40 min at 4° C. Reactions were filtered, washed with 8 reaction volumes of 10% (v/v) trichloroacetic acetic acid, 4 reaction volumes of 70% (v/v) ethanol, air dried, and 25 μL of scintillant (Microscint 20, Perkin-Elmer) was added to each reaction well.
The amount of light emitted from the scintillant was converted to counts per minute (CPM) on a Topcount® plate reader (Perkin-Elmer, Energy Range: Low, Efficiency Mode Normal, Count Time: 1 min, Background Subtract: none, Cross talk reduction: Off).
Data was analyzed in Excel® (Microsoft) and ActivityBase® (Idbs®). The reaction in the absence of enzyme was used to determine the background signal, which was subtracted from the enzymatic reactions. Positive control reactions were performed in the absence of compound, from which the background corrected activity was set as 100% polymerase activity. All data was expressed as a percentage of the positive control. The compound concentration at which the enzyme-catalyzed rate of RNA synthesis was reduced by 50% (IC50) was calculated by fitting equation (i) to the data where“Y” […]

HCV = conditions: cited from earlier work
[2] = system: HCV replicon cells (2209-23), genotype 1b replicon in Huh7 cells; test: HCV replicon assay (Renilla luciferase reporter); assay type: cell-based, HCV genotype 1b; conditions: Hepatitis C virus, Huh-7, 72 h; 2209-23 cells, three days incubation
in vitro = conditions: human

Row | SMILES | IC50 [1] | melting point | further results
1 | CC(C)(C)c1nc(-c2ccc(O)[nH]c2=O)c2ccc(N3CC[C@H](CNS(C)(=O)=O)C3)cc2n1 [Compound I-2] | 3.5 nM | 205.8 to 207.9 °C | 
2 | CC(C)(C)c1nc(-n2ccc(=O)[nH]c2=O)c2ncc(-c3ccc(NS(C)(=O)=O)cc3)cc2n1 [Compound I-5, N-{4-[2-tert-Butyl-4-(2,4-dioxo-3,4-dihydro-2H-pyrimidin-1-yl)-pyrido[3,2-d]pyrimidin-7-yl]-phenyl}-methanesulfonamide] | 5.5 nM |  | 
3 | NC(=O)c1ncn([C@@H]2O[C@H](CO)[C@@H](O)[C@H]2O)n1 [ribavirin, 1-((2R,3R,4S,5R)-3,4-Dihydroxy-5-hydroxymethyl-tetrahydro-furan-2-yl)-1H-[1,2,4]triazole-3-carboxylic acid amide] |  |  | patients with serum amino transferase levels reduced to normal (HCV; monotherapy): 40%; effect on serum levels of HCV-RNA (HCV; sole treatment / monotherapy): does not lower serum levels of HCV-RNA
4 | CC(C)(C)c1nc(-c2ccc(O)[nH]c2=O)c2ccc(-c3ccc(NS(C)(=O)=O)cc3)cc2n1 [Compound I-4, N-{4-[2-tert-Butyl-4-(6-hydroxy-2-oxo-1,2-dihydro-pyridin-3-yl)-quinazolin-7-yl]-phenyl}-methanesulfonamide] | 2.4 nM |  | 
5 | Cc1ccc(-c2nc(C(C)(C)C)nc3cc(-c4ccc(NS(C)(=O)=O)cc4)cnc23)c(=O)[nH]1 [Compound I-6] | 9.7 nM |  | 
6 | CC(C)(C)c1nc(-n2ccc(=O)[nH]c2=O)c2ccc(-c3ccc(NS(C)(=O)=O)cc3)cc2n1 [Compound I-3, N-{4-[2-tert-Butyl-4-(2,4-dioxo-3,4-dihydro-2H-pyrimidin-1-yl)-quinazolin-7-yl]-phenyl}-methanesulfonamide] | < 0.1 nM | 186 to 190 °C | IC50 [2]: 17 nM; CC50 at 3 days (in vitro): 44 µM
